# Assay results from patent US20060183733A1, “Treating microvasculature diseases with acetyl cholinesterase inhibitors” (priority 2005, published 2006).
# Entries after “also recorded” stand apart in the source; their conditions may differ.
# System: patients with phantom pain
# Assay: Patient case histories: phantom pain following amputation
# Assay type: in vivo, human
# Conditions: donepizil 5 mg daily
# Source text: The present invention further provides a method of treating phantom pain following amputation in both upper and lower extremities. “Phantom pain” is a phenomenon described following amputation of either an upper or lower extremity. The sensation is common following amputation and present with varying degrees of discomfort and debility. A patient with phantom pain is typically treated with antidepressants, Neurontin® (gabapeninand) narcotics to a varying degree. The use of acetylcholinesterase inhibitors decreases the need for narcotics and generally eliminates the need for poly pharmacy improving pain, enhancing wound healing and improved sleep pattern in amputee patients. The dose of acetylcholinesterase inhibitor is titrated to GI (gastrointestinal) tolerance with bowel movement consistency and frequency the determining factors. Treatment with acetylcholinesterase inhibitor increases the available acetylcholine which is the neurotransmitter responsible for activation of the parasysmpathic nervous system appear responsible for Noxious symptoms of phantom pain for discomfort. The present invention provides a method of treating phantom pain associated with amputation of either upper or lower extremity.
smiles,measurement,value
"COc1cc2c(cc1OC)C(=O)C(CC1CCN(Cc3ccccc3)CC1)C2 (stereo not shown) [donepizil, 1-benzyl-4->(5,6-dimethoxy-1-indanon)-2-yl methylpiperidine]","clinical outcome (phantom pain, sleep)",dramatic improvement in here phantom discomfort; also recorded: prompt improvement in their pain control; also recorded: phantom pain diminished to the point they no longer required Oxycotin®; also recorded: notable improvement in leg discomfort; also recorded: much improved phantom discomfort and improved sleep; also recorded: no symptoms of vascular insufficiency in their contralateral extremity
